These results are taken from US5591714A, “Derivatives of A82846” (priority 1994, dated 1997).

What all share (assay): In vivo activity, experimentally infected mice (ED50)
Experiment [1] has as its system Streptococcus pneumoniae. Conditions: Streptococcus pneumoniae infection; doses administered subcutaneously to mice 1 and 4 hours postinfection.
For experiment [2], the system named is Streptococcus pyogenes. Conditions: Streptococcus pyogenes infection; doses administered subcutaneously to mice 1 and 4 hours postinfection.
Experiment [3] concerns Staphylococcus aureus. As to conditions: Staphylococcus aureus infection; doses administered subcutaneously to mice 1 and 4 hours postinfection.

SMILES strings stand for the structures.

Regarding `CN[C@H](CC(C)C)C(=O)N[C@H]1C(=O)N[C@@H](CC(N)=O)C(=O)N[C@H]2C(=O)N[C@H]3C(=O)N[C@H](C(=O)N[C@H](C(=O)O)c4cc(O)cc(O)c4-c4cc3ccc4O)[C@H](O[C@H]3C[C@](C)(NCCc4ccccc4)[C@@H](O)[C@H](C)O3)c3ccc(cc3)Oc3cc2cc(c3O[C@@H]2O[C@H](CO)[C@@H](O)[C@H](O)[C@H]2O[C@H]2C[C@](C)(N)[C@@H](O)[C@H](C)O2)Oc2ccc(cc2Cl)[C@H]1O` [Compound 25], the ED50 is listed as 0.76 mg/kg/2 in experiment [1], 0.50 mg/kg/2 in experiment [2] and above 1.0 mg/kg/2 in experiment [3].
Consider `CN[C@H](CC(C)C)C(=O)N[C@H]1C(=O)N[C@@H](CC(N)=O)C(=O)N[C@H]2C(=O)N[C@H]3C(=O)N[C@H](C(=O)N[C@H](C(=O)O)c4cc(O)cc(O)c4-c4cc3ccc4O)[C@H](O[C@H]3C[C@](C)(N)[C@@H](O)[C@H](C)O3)c3ccc(cc3)Oc3cc2cc(c3O[C@@H]2O[C@H](CO)[C@@H](O)[C@H](O)[C@H]2O[C@H]2C[C@](C)(NCC(c3ccccc3)c3ccccc3)[C@@H](O)[C@H](C)O2)Oc2ccc(cc2Cl)[C@H]1O` [Compound 26], for which the results for the ED50 in experiment [1], in experiment [2] and in experiment [3] were 0.47 mg/kg/2, 0.48 mg/kg/2 and above 3.0 mg/kg/2, respectively.
Taken in the same sequence, the figures for `CCCCCN[C@@]1(C)C[C@H](O[C@H]2[C@H](Oc3c4cc5cc3Oc3ccc(cc3Cl)[C@@H](O[C@H]3C[C@](C)(N)[C@@H](O)[C@H](C)O3)[C@@H]3NC(=O)[C@H](NC(=O)[C@@H]5NC(=O)[C@H](CC(N)=O)NC(=O)[C@H](NC(=O)[C@@H](CC(C)C)N(C)CCCCC)[C@H](O)c5ccc(c(Cl)c5)O4)c4ccc(O)c(c4)-c4c(O)cc(O)cc4[C@@H](C(=O)O)NC3=O)O[C@H](CO)[C@@H](O)[C@@H]2O)O[C@@H](C)[C@@H]1O` [Compound 36] were 0.29 mg/kg/2, 0.38 mg/kg/2 and 1.0 mg/kg/2.
For `CCCCCN[C@@]1(C)C[C@H](O[C@H]2[C@H](Oc3c4cc5cc3Oc3ccc(cc3Cl)[C@@H](O[C@H]3C[C@](C)(NCCCCC)[C@@H](O)[C@H](C)O3)[C@@H]3NC(=O)[C@H](NC(=O)[C@@H]5NC(=O)[C@H](CC(N)=O)NC(=O)[C@H](NC(=O)[C@@H](CC(C)C)N(C)CCCCC)[C@H](O)c5ccc(c(Cl)c5)O4)c4ccc(O)c(c4)-c4c(O)cc(O)cc4[C@@H](C(=O)O)NC3=O)O[C@H](CO)[C@@H](O)[C@@H]2O)O[C@@H](C)[C@@H]1O` [Compound 37] the same measures were 0.88 mg/kg/2, 1.09 mg/kg/2 and above 5.0 mg/kg/2.
For `CCCCCCCCN(C)[C@H](CC(C)C)C(=O)N[C@H]1C(=O)N[C@@H](CC(N)=O)C(=O)N[C@H]2C(=O)N[C@H]3C(=O)N[C@H](C(=O)N[C@H](C(=O)O)c4cc(O)cc(O)c4-c4cc3ccc4O)[C@H](O[C@H]3C[C@](C)(N)[C@@H](O)[C@H](C)O3)c3ccc(c(Cl)c3)Oc3cc2cc(c3O[C@@H]2O[C@H](CO)[C@@H](O)[C@H](O)[C@H]2O[C@H]2C[C@](C)(N)[C@@H](O)[C@H](C)O2)Oc2ccc(cc2Cl)[C@H]1O` [Compound 39] the same measures were 0.34 mg/kg/2, 0.18 mg/kg/2 and 1.22 mg/kg/2.
As to `CCCCCCCCN[C@@]1(C)C[C@H](O[C@H]2[C@H](Oc3c4cc5cc3Oc3ccc(cc3Cl)[C@@H](O[C@H]3C[C@](C)(NCCCCCCCC)[C@@H](O)[C@H](C)O3)[C@@H]3NC(=O)[C@H](NC(=O)[C@@H]5NC(=O)[C@H](CC(N)=O)NC(=O)[C@H](NC(=O)[C@@H](CC(C)C)NC)[C@H](O)c5ccc(c(Cl)c5)O4)c4ccc(O)c(c4)-c4c(O)cc(O)cc4[C@@H](C(=O)O)NC3=O)O[C@H](CO)[C@@H](O)[C@@H]2O)O[C@@H](C)[C@@H]1O` [Compound 41], the values for the ED50 in experiment [1], in experiment [2] and in experiment [3] were 0.32 mg/kg/2, 0.18 mg/kg/2 and 1.22 mg/kg/2, respectively.
Taken in the same sequence, the figures for `CN[C@H](CC(C)C)C(=O)N[C@H]1C(=O)N[C@@H](CC(N)=O)C(=O)N[C@H]2C(=O)N[C@H]3C(=O)N[C@H](C(=O)N[C@H](C(=O)O)c4cc(O)cc(O)c4-c4cc3ccc4O)[C@H](O[C@H]3C[C@](C)(NCCc4ccccc4)[C@@H](O)[C@H](C)O3)c3ccc(c(Cl)c3)Oc3cc2cc(c3O[C@@H]2O[C@H](CO)[C@@H](O)[C@H](O)[C@H]2O[C@H]2C[C@](C)(N)[C@@H](O)[C@H](C)O2)Oc2ccc(cc2Cl)[C@H]1O` [Compound 44] were 0.2 mg/kg/2, 0.125 mg/kg/2 and 0.3 mg/kg/2.
Taken in the same sequence, the figures for `CNC(CC(C)C)C(=O)NC1C(=O)NC(CC(N)=O)C(=O)NC2C(=O)NC3C(=O)NC(C(=O)NC(C(=O)O)c4cc(O)cc(O)c4-c4cc3ccc4O)C(OC3CC(C)(NCC(c4ccccc4)c4ccccc4)C(O)C(C)O3)c3ccc(c(Cl)c3)Oc3cc2cc(c3OC2OC(CO)C(O)C(O)C2OC2CC(C)(N)C(O)C(C)O2)Oc2ccc(cc2Cl)C1O` (stereo not drawn) [Compound 46] were 0.22 mg/kg/2, 0.14 mg/kg/2 and 0.75 mg/kg/2.
For `CNC(CC(C)C)C(=O)NC1C(=O)NC(CC(N)=O)C(=O)NC2C(=O)NC3C(=O)NC(C(=O)NC(C(=O)O)c4cc(O)cc(O)c4-c4cc3ccc4O)C(OC3CC(C)(NCCCc4ccccc4)C(O)C(C)O3)c3ccc(c(Cl)c3)Oc3cc2cc(c3OC2OC(CO)C(O)C(O)C2OC2CC(C)(NCCCc3ccccc3)C(O)C(C)O2)Oc2ccc(cc2Cl)C1O` (stereo not drawn) [Compound 50] the same measures were 1.02 mg/kg/2, 0.6 mg/kg/2 and above 5.0 mg/kg/2.
Consider `CNC(CC(C)C)C(=O)NC1C(=O)NC(CC(N)=O)C(=O)NC2C(=O)NC3C(=O)NC(C(=O)NC(C(=O)O)c4cc(O)cc(O)c4-c4cc3ccc4O)C(OC3CC(C)(NCc4ccccc4)C(O)C(C)O3)c3ccc(c(Cl)c3)Oc3cc2cc(c3OC2OC(CO)C(O)C(O)C2OC2CC(C)(NCc3ccccc3)C(O)C(C)O2)Oc2ccc(cc2Cl)C1O` (stereo not drawn) [Compound 53], for which the figures for the ED50 in experiment [1], in experiment [2] and in experiment [3] were 0.18 mg/kg/2, 0.2 mg/kg/2 and 1.25 mg/kg/2, respectively.
On to `CNC(CC(C)C)C(=O)NC1C(=O)NC(CC(N)=O)C(=O)NC2C(=O)NC3C(=O)NC(C(=O)NC(C(=O)O)c4cc(O)cc(O)c4-c4cc3ccc4O)C(OC3CC(C)(NCc4ccc(Br)cc4)C(O)C(C)O3)c3ccc(c(Cl)c3)Oc3cc2cc(c3OC2OC(CO)C(O)C(O)C2OC2CC(C)(NCc3ccc(Br)cc3)C(O)C(C)O2)Oc2ccc(cc2Cl)C1O` (stereo not drawn) [Compound 59], for which the ED50 in experiment [1] was below 0.31 mg/kg/2; in experiment [2], 0.25 mg/kg/2; in experiment [3], 3.16 mg/kg/2.
Taken in the same sequence, the figures for `CNC(CC(C)C)C(=O)NC1C(=O)NC(CC(N)=O)C(=O)NC2C(=O)NC3C(=O)NC(C(=O)NC(C(=O)O)c4cc(O)cc(O)c4-c4cc3ccc4O)C(OC3CC(C)(NCc4ccc(Cl)cc4)C(O)C(C)O3)c3ccc(c(Cl)c3)Oc3cc2cc(c3OC2OC(CO)C(O)C(O)C2OC2CC(C)(NCc3ccc(Cl)cc3)C(O)C(C)O2)Oc2ccc(cc2Cl)C1O` (stereo not drawn) [Compound 61] were 0.08 mg/kg/2, 0.10 mg/kg/2 and 1.83 mg/kg/2.
For `CNC(CC(C)C)C(=O)NC1C(=O)NC(CC(N)=O)C(=O)NC2C(=O)NC3C(=O)NC(C(=O)NC(C(=O)O)c4cc(O)cc(O)c4-c4cc3ccc4O)C(OC3CC(C)(NCc4cccc(Cl)c4)C(O)C(C)O3)c3ccc(c(Cl)c3)Oc3cc2cc(c3OC2OC(CO)C(O)C(O)C2OC2CC(C)(NCc3cccc(Cl)c3)C(O)C(C)O2)Oc2ccc(cc2Cl)C1O` (stereo not drawn) [Compound 65], the ED50 in experiment [1] worked out at 0.11 mg/kg/2; in experiment [2], 0.15 mg/kg/2; in experiment [3], 1.59 mg/kg/2.
For the molecule `CNC(CC(C)C)C(=O)NC1C(=O)NC(CC(N)=O)C(=O)NC2C(=O)NC3C(=O)NC(C(=O)NC(C(=O)O)c4cc(O)cc(O)c4-c4cc3ccc4O)C(OC3CC(C)(NCc4ccc(F)cc4)C(O)C(C)O3)c3ccc(c(Cl)c3)Oc3cc2cc(c3OC2OC(CO)C(O)C(O)C2OC2CC(C)(NCc3ccc(F)cc3)C(O)C(C)O2)Oc2ccc(cc2Cl)C1O` (stereo not drawn) [Compound 68], the ED50 stood at 0.12 mg/kg/2 in experiment [1], 0.09 mg/kg/2 in experiment [2] and 0.80 mg/kg/2 in experiment [3].
